# Source: PubChem BioAssay (NCI)
#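 Five compound concentrations were applied to cells in 96-well plates for 48 hours; endpoints were derived by simple linear interpolation of the resulting dose-response curve. The concentration for 50% growth inhibition is given as GI50. The concentration for full growth arrest is given as TGI.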
# What was measured:
# Assay in all cases: NCI tumour cell line growth inhibition, 48 h
# [1] = test system: 786-0 renal
# [2] = test system: A498 renal
# [3] = test system: A549 NSCLC
# [4] = test system: ACHN renal
# [5] = test system: BT-549 breast
# [6] = test system: CAKI-1 renal
# [7] = test system: CCRF-CEM leukemia
# [8] = test system: COLO 205 colon
# [9] = test system: DU-145 prostate
# [10] = test system: EKVX NSCLC
# [11] = test system: HCC-2998 colon
# [12] = test system: HCT-116 colon
# [13] = test system: HCT-15 colon
# [14] = test system: HL-60(TB) leukemia
# [15] = test system: HOP-62 NSCLC
# [16] = test system: HOP-92 NSCLC
# [17] = test system: HS 578T breast
# [18] = test system: HT29 colon
# [19] = test system: IGROV1 ovarian
# [20] = test system: K-562 leukemia
# [21] = test system: KM12 colon
# [22] = test system: LOX IMVI melanoma
# [23] = test system: M14 melanoma
# [24] = test system: MALME-3M melanoma
# [25] = test system: MCF7 breast
# [26] = test system: MDA-MB-231 breast
# [27] = test system: MDA-MB-435
# [28] = test system: MDA-MB-468 breast
# [29] = test system: MOLT-4 leukemia
# [30] = test system: NCI-H226 lung
# [31] = test system: NCI-H23 lung
# [32] = test system: NCI-H460 lung
# [33] = test system: NCI-H522 lung
# [34] = test system: NCI/ADR-RES ovarian
# [35] = test system: OVCAR-3 ovarian
# [36] = test system: OVCAR-4 ovarian
# [37] = test system: OVCAR-5 ovarian
# [38] = test system: OVCAR-8 ovarian
# [39] = test system: PC-3 prostate
# [40] = test system: RPMI-8226 leukemia
# [41] = test system: RXF 393 renal
# [42] = test system: SF-268 CNS
# [43] = test system: SF-295 CNS
# [44] = test system: SF-539 CNS
# [45] = test system: SK-MEL-2 melanoma
# [46] = test system: SK-MEL-28 melanoma
# [47] = test system: SK-MEL-5 melanoma
# [48] = test system: SK-OV-3 ovarian
# [49] = test system: SN12C renal
# [50] = test system: SNB-19 CNS
# [51] = test system: SNB-75 CNS
# [52] = test system: SR leukemia
# [53] = test system: SW-620 colon
# [54] = test system: T-47D breast
# [55] = test system: TK-10 renal
# [56] = test system: U251 CNS
# [57] = test system: UACC-257 melanoma
# [58] = test system: UACC-62 melanoma
# [59] = test system: UO-31 renal
smiles,measurement,setting,value
Clc1cccc(N/N=C/c2c[nH]c3ccccc23)n1,GI50,[1],11.1 µM
same,TGI,[1],24.2 µM
same,GI50,[2],18.7 µM
same,TGI,[2],34 µM
same,GI50,[3],13.2 µM
same,TGI,[3],38.2 µM
same,GI50,[4],10.5 µM
same,TGI,[4],33.6 µM
same,GI50,[5],0.245 µM
same,TGI,[5],11 µM
same,GI50,[6],2.23 µM
same,TGI,[6],19.1 µM
same,GI50,[7],0.307 µM
same,TGI,[7],19.4 µM
same,GI50,[8],13.8 µM
same,TGI,[8],28.8 µM
same,GI50,[9],13 µM
same,TGI,[9],26 µM
same,GI50,[10],1.97 µM
same,TGI,[10],16.8 µM
same,GI50,[11],12 µM
same,TGI,[11],24.6 µM
same,GI50,[12],12.1 µM
same,TGI,[12],25.2 µM
same,GI50,[13],8.1 µM
same,TGI,[13],21.5 µM
same,GI50,[14],1.28 µM
same,TGI,[14],13.9 µM
same,GI50,[15],10 µM
same,TGI,[15],22.3 µM
same,GI50,[16],5.32 µM
same,TGI,[16],20.7 µM
same,GI50,[17],4.17 µM
same,TGI,[17],27.8 µM
same,GI50,[18],15 µM
same,TGI,[18],31.8 µM
same,GI50,[19],1.37 µM
same,TGI,[19],6.92 µM
same,GI50,[20],1.94 µM
same,TGI,[20],41 µM
same,GI50,[21],9.78 µM
same,TGI,[21],26.9 µM
same,GI50,[22],3.32 µM
same,TGI,[22],17 µM
same,GI50,[23],11.9 µM
same,TGI,[23],25.4 µM
same,GI50,[24],7.33 µM
same,TGI,[24],20.8 µM
same,GI50,[25],2.67 µM
same,TGI,[25],16.4 µM
same,GI50,[26],1.37 µM
same,TGI,[26],9.57 µM
same,GI50,[27],2.46 µM
same,TGI,[27],12 µM
same,GI50,[28],1.89 µM
same,TGI,[28],5.01 µM
same,GI50,[29],1.55 µM
same,TGI,[29],21.9 µM
same,GI50,[30],1.65 µM
same,TGI,[30],17.2 µM
same,GI50,[31],12.5 µM
same,TGI,[31],26.3 µM
same,GI50,[32],11.5 µM
same,TGI,[32],28.8 µM
same,GI50,[33],1.03 µM
same,TGI,[33],12.4 µM
same,GI50,[34],2.98 µM
same,TGI,[34],16.5 µM
same,GI50,[35],3.85 µM
same,TGI,[35],19.3 µM
same,GI50,[36],10.5 µM
same,TGI,[36],29 µM
same,GI50,[37],11 µM
same,TGI,[37],23.7 µM
same,GI50,[38],8.12 µM
same,TGI,[38],21 µM
same,GI50,[39],2.98 µM
same,TGI,[39],26.6 µM
same,GI50,[40],0.83 µM
same,TGI,[40],14.5 µM
same,GI50,[41],2.84 µM
same,TGI,[41],18.1 µM
same,GI50,[42],2.99 µM
same,TGI,[42],25.9 µM
same,GI50,[43],11.4 µM
same,TGI,[43],23.5 µM
same,GI50,[44],1.47 µM
same,TGI,[44],11.9 µM
same,GI50,[45],12.9 µM
same,TGI,[45],25.9 µM
same,GI50,[46],14.5 µM
same,TGI,[46],27.6 µM
same,GI50,[47],8.61 µM
same,TGI,[47],21 µM
same,GI50,[48],2.39 µM
same,TGI,[48],16.8 µM
same,GI50,[49],2.28 µM
same,TGI,[49],11.7 µM
same,GI50,[50],12.7 µM
same,TGI,[50],30.8 µM
same,GI50,[51],0.141 µM
same,TGI,[51],5 µM
same,GI50,[52],2.93 µM
same,TGI,[52],19.3 µM
same,GI50,[53],13.3 µM
same,TGI,[53],28 µM
same,GI50,[54],4.04 µM
same,TGI,[54],19 µM
same,GI50,[55],19.5 µM
same,TGI,[55],42.3 µM
same,GI50,[56],10.7 µM
same,TGI,[56],25.8 µM
same,GI50,[57],11.6 µM
same,TGI,[57],24 µM
same,GI50,[58],10.3 µM
same,TGI,[58],22 µM
same,GI50,[59],1.21 µM
same,TGI,[59],14.1 µM
OC(c1ccccc1)(c1ccccc1)C1CCN(c2ccc3nnc(Cl)n3n2)CC1,GI50,[1],25 µM
same,TGI,[1],71.8 µM
same,GI50,[2],16.8 µM
same,TGI,[2],32.6 µM
same,GI50,[3],18 µM
same,TGI,[3],> 100 µM
same,GI50,[4],14.2 µM
same,TGI,[4],44.8 µM
same,GI50,[5],13.9 µM
same,TGI,[5],29.8 µM
same,GI50,[6],15.6 µM
same,TGI,[6],81.3 µM
same,GI50,[7],12.8 µM
same,TGI,[7],> 100 µM
same,GI50,[8],18.3 µM
same,TGI,[8],46.2 µM
same,GI50,[9],24 µM
same,TGI,[9],> 100 µM
same,GI50,[10],15.5 µM
same,TGI,[10],54.3 µM
same,GI50,[11],15.5 µM
same,TGI,[11],29.9 µM
same,GI50,[12],14.1 µM
same,TGI,[12],39.1 µM
same,GI50,[13],15.7 µM
same,TGI,[13],54.2 µM
same,GI50,[14],12.7 µM
same,TGI,[14],42.9 µM
same,GI50,[15],44 µM
same,TGI,[15],> 100 µM
same,GI50,[16],10.8 µM
same,TGI,[16],29 µM
same,GI50,[17],22 µM
same,TGI,[17],53.2 µM
same,GI50,[18],16.9 µM
same,TGI,[18],36.4 µM
same,GI50,[19],16.4 µM
same,TGI,[19],41.9 µM
same,GI50,[20],14 µM
same,TGI,[20],> 100 µM
same,GI50,[21],16.2 µM
same,TGI,[21],42.5 µM
same,GI50,[22],15.3 µM
same,TGI,[22],29 µM
same,GI50,[23],17.4 µM
same,TGI,[23],34.9 µM
same,GI50,[24],19.5 µM
same,TGI,[24],33.9 µM
same,GI50,[25],16.2 µM
same,TGI,[25],44.2 µM
same,GI50,[26],15.4 µM
same,TGI,[26],30.4 µM
same,GI50,[27],19.5 µM
same,TGI,[27],43.3 µM
same,GI50,[28],13 µM
same,TGI,[28],35.4 µM
same,GI50,[29],4.18 µM
same,TGI,[29],31.6 µM
same,GI50,[30],14.5 µM
same,TGI,[30],38.9 µM
same,GI50,[31],16.8 µM
same,TGI,[31],37.3 µM
same,GI50,[32],14.1 µM
same,TGI,[32],32.6 µM
same,GI50,[33],15.6 µM
same,TGI,[33],49.1 µM
same,GI50,[34],18 µM
same,TGI,[34],63.3 µM
same,GI50,[35],21.1 µM
same,TGI,[35],65.7 µM
same,GI50,[36],23.2 µM
same,TGI,[36],> 100 µM
same,GI50,[37],17.5 µM
same,TGI,[37],45.2 µM
same,GI50,[38],25.7 µM
same,TGI,[38],76.9 µM
same,GI50,[39],8.75 µM
same,TGI,[39],62.2 µM
same,GI50,[40],9.29 µM
same,TGI,[40],50.8 µM
same,GI50,[41],14.5 µM
same,TGI,[41],29.4 µM
same,GI50,[42],26.3 µM
same,TGI,[42],> 100 µM
same,GI50,[43],17 µM
same,TGI,[43],54.1 µM
same,GI50,[44],17.2 µM
same,TGI,[44],38.7 µM
same,GI50,[45],16.5 µM
same,TGI,[45],32.8 µM
same,GI50,[46],18.3 µM
same,TGI,[46],43 µM
same,GI50,[47],13.7 µM
same,TGI,[47],26.6 µM
same,GI50,[48],42.1 µM
same,TGI,[48],> 100 µM
same,GI50,[49],17.5 µM
same,TGI,[49],40 µM
same,GI50,[50],36.3 µM
same,TGI,[50],> 100 µM
same,GI50,[51],14.6 µM
same,TGI,[51],36.9 µM
same,GI50,[52],10.9 µM
same,TGI,[52],47.5 µM
same,GI50,[53],25 µM
same,TGI,[53],67.8 µM
same,GI50,[54],20.6 µM
same,TGI,[54],> 100 µM
same,GI50,[55],22.9 µM
same,TGI,[55],62.5 µM
same,GI50,[56],18 µM
same,TGI,[56],39.6 µM
same,GI50,[57],18.5 µM
same,TGI,[57],37.9 µM
same,GI50,[58],14.6 µM
same,TGI,[58],30.4 µM
same,GI50,[59],11 µM
same,TGI,[59],29.1 µM
